{
  "source": "paper PMC8248988",
  "about": "“A signal capture and proofreading mechanism for the KDEL-receptor explains selectivity and dynamic range in ER retrieval” (eLife, 2021)",
  "test_system": "BIP",
  "assay": "ER chaperone secretion assay, BIP",
  "assay_type": "cell-based, human",
  "from_the_text": "Figure 1. ER retrieval signal abundance and affinity are not correlated. (a) Sequence logos for ER resident proteins with C-terminal KDEL retrieval signals and variants thereof calculated using frequency or protein abundance ([Itzhak et al., 2017]; [Itzhak et al., 2016]). (b) Combined cellular concentrations of ER resident proteins with canonical KDEL, RDEL, and HDEL retrieval sequences in HeLa cells and mouse brain. (c) Competition binding assays for [^3H]-TAEHDEL and unlabelled TAEKDEL, TAERDEL, and TAEHDEL to the KDEL receptor. IC50 values for the competing peptides were used to calculate the apparent KDwith the Cheng-Prusoff equation ([Cheng and Prusoff, 1973]). (d) Endogenous KDEL receptor redistribution was measured in COS-7 cells in the absence (-ligand) or presence of K/R/H/A/DDEL (mScarlet-xDEL^sec). TGN46 was used as a Golgi marker. Scale bar is 10 µm. (e) The mean difference for K/R/H/A/DDEL comparisons against the shared no ligand control are shown as Cummings estimation plots. The individual data points for the fraction of KDEL receptor fluorescence in the Golgi are plotted on the upper axes with sample sizes and p values. Figure 1—source data 1. Source data for the ligand-induced KDELR receptor retrieval assays in Figure 1e. Figure 1—figure supplement 1. Abundance of ER resident proteins and chaperones in human cells and mouse brain. (a) The mean concentration of ER resident chaperones with the indicated ER retrieval sequence variant is plotted in the bar graph ([Itzhak et al., 2017]; [Itzhak et al., 2016]). […] Endogenous ER chaperone secretion was measured by western blotting after challenge with different retrieval signals, and plotted as a bar graph showing mean ± SEM (n = 3). […] (a) Distribution of human KDELR1 and (b) KDELR2 was measured in COS-7 cells in the absence (-ligand) or presence of K/R/H/A/DDEL retrieval signals (K/R/H/A/DDEL^sec). […] The fraction of KDEL receptor localised to the Golgi was measured before (no ligand) and after challenge with different retrieval signals as indicated. […]",
  "data": [
    {"substance": "ADEL [pcDNA3.1 hGHss-mScarlet-H. sapiens BiP639-654K651A (ADEL^SEC), secreted mScarlet fusion with human BiP C-terminus, ADEL signal]", "values": [
      {"measurement": "BiP secretion after challenge with retrieval signal", "setting": "mean, HeLa S3, 24 hr, Western blot densitometry", "value": 8.5},
      {"measurement": "BiP secretion after challenge with retrieval signal", "setting": "replicate 1", "value": 15.9},
      {"measurement": "BiP secretion after challenge with retrieval signal", "setting": "replicate 2", "value": 1.1}
    ]}
  ]
}
